In PubChem BioAssay (NCI):
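Where inhibition never reached the appropriate level, the endpoint shown equals the highest concentration tested. Otherwise, values were interpolated linearly from a five-concentration, 48-hour dose response in 96-well plates. GI50: concentration for 50% inhibition of growth. At the TGI there is no net growth.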

Tests used:
Assay in all cases: NCI tumour cell line growth inhibition, 48 h
HT29 colon = tested on: HT29 colon
MOLT-4 leukemia = tested on: MOLT-4 leukemia
OVCAR-3 ovarian = tested on: OVCAR-3 ovarian
PC-3 prostate = tested on: PC-3 prostate
RPMI-8226 leukemia = tested on: RPMI-8226 leukemia
SF-268 CNS = tested on: SF-268 CNS
SF-295 CNS = tested on: SF-295 CNS
SK-MEL-2 melanoma = tested on: SK-MEL-2 melanoma
SK-MEL-5 melanoma = tested on: SK-MEL-5 melanoma
SR leukemia = tested on: SR leukemia

Row | Compound | GI50 (HT29 colon) [µM] | TGI (HT29 colon) [µM] | GI50 (MOLT-4 leukemia) [µM] | TGI (MOLT-4 leukemia) [µM] | GI50 (OVCAR-3 ovarian) [µM] | TGI (OVCAR-3 ovarian) [µM] | GI50 (PC-3 prostate) [µM] | TGI (PC-3 prostate) [µM] | GI50 (RPMI-8226 leukemia) [µM] | TGI (RPMI-8226 leukemia) [µM] | GI50 (SF-268 CNS) [µM] | TGI (SF-268 CNS) [µM] | GI50 (SF-295 CNS) [µM] | TGI (SF-295 CNS) [µM] | GI50 (SK-MEL-2 melanoma) [µM] | TGI (SK-MEL-2 melanoma) [µM] | GI50 (SK-MEL-5 melanoma) [µM] | TGI (SK-MEL-5 melanoma) [µM] | GI50 (SR leukemia) [µM] | TGI (SR leukemia) [µM]
1 | COc1ccc(/C=C2\COc3ccc(O)c(O)c3C2=O)cc1OC | 2.12 | 5.2 | 1.05 | 9.13 | 0.539 | 3.31 | 1.53 | 6.82 | 0.336 | 1.51 | 1.7 | 5.64 | 2.7 | 7.18 | 2.02 | 5.28 | 1.79 | 3.4 | 0.537 | 10.7
2 | Cc1nn(Cc2ccccc2)cc1C(=O)Nc1sc2c(c1C(N)=O)CCC(=O)C2 | 2.27 | 6.58 | 2.62 | 9.27 | 1.7 | 3.43 | 0.752 | 5.14 | 1.18 | 4.09 | 3.12 | 21.8 | 2.68 | 8.07 | 2.12 | 5.2 | 1.83 | 3.33 | 1.41 | 8.81
3 | C=C1C(=O)O[C@H]2[C@H]1CC/C(COC(=O)CCCCCCCC(=O)OC/C1=C/CC[C@@]3(C)O[C@H]3[C@H]3OC(=O)C(=C)[C@@H]3CC1)=C\CC[C@@]1(C)O[C@@H]21 | 2.02 | 4.23 | 0.791 | 11.4 | 1.32 | 2.79 | 1.96 | 4.62 | 1.31 | 6.46 | 2.3 | 7.41 | 3.6 | 15.2 | 11.3 | 31.5 | 1.98 | 4.1 | 0.398 | 10.6
